Measured values as given in ChEMBL document CHEMBL1131825, “A 2-nitroimidazole carbamate prodrug of 5-amimo-1-(chloromethyl)-3-[(5,6,7-trimethoxyindol-2-yl)carbony l]-1,2-dihydro-3H--benz[E]indole (amino-seco-CBI-TMI) for use with ADEPT and GDEPT” (Bioorg Med Chem Lett, 1999).
pIC50: −log10 of the molar value.

Legend:
SK-OV-3 [1] = assay: In vitro cytotoxic activity against SKOV3 cell line after 4 hours at 20% oxygen present in gas phase; assay type: functional, Homo sapiens
SK-OV-3 [2] = assay: In vitro cytotoxicity against SKOV3 cell proliferation after 18 hr exposure in absence of reagent; assay type: functional, cell-based; conditions: Homo sapiens, SK-OV-3, 18 h
SK-OV-3 [3] = assay: In vitro cytotoxic activity against SKOV3 cell line after 4 hours at less than 0.01 % of oxygen in gas phase; assay type: functional, Homo sapiens
SK-OV-3 [4] = assay: In vitro cytotoxic activity against SKOV3 cell line after 1 hour at 20% oxygen present in gas phase; assay type: functional, Homo sapiens
SK-OV-3 [5] = assay: In vitro cytotoxicity against SKOV3 cell proliferation after 18 hr exposure in presence of 1 mM NADH; assay type: functional, cell-based; conditions: Homo sapiens, SK-OV-3, 18 h
SK-OV-3 [6] = assay: In vitro cytotoxicity against SKOV3 cell proliferation after 18 hr exposure in presence of 1 mM NADH + NTR; assay type: functional, cell-based; conditions: Homo sapiens, SK-OV-3, 18 h
SK-OV-3 [7] = assay: In vitro cytotoxic activity against SKOV3 cell line after 1 hour at less than 0.01 % of oxygen in gas phase; assay type: functional, Homo sapiens
SC-3 = assay: In vitro cytotoxicity against SC3.2 cell proliferation after 18 hr exposure; assay type: functional, cell-based, Homo sapiens; conditions: Mus musculus, SC-3, 18 h

SMILES | C10 (SK-OV-3 [1]) [nM] | pIC50 (SK-OV-3 [2]) | C10 (SK-OV-3 [3]) [nM] | C10 (SK-OV-3 [4]) [nM] | pIC50 (SK-OV-3 [5]) | pIC50 (SK-OV-3 [6]) | C10 (SK-OV-3 [7]) [nM] | pIC50 (SC-3)
COc1cc2cc(C(=O)N3CC(CCl)c4c3cc(NC(=O)OCc3cnc([N+](=O)[O-])n3C)c3ccccc43)[nH]c2c(OC)c1OC (configuration not stated) | 600 | 7.12 | 15 | 2100 | 7.24 | 8.10 | 135 | 8.46
COc1cc2cc(C(=O)N3CC(CCl)c4c3cc(N)c3ccccc43)[nH]c2c(OC)c1OC (configuration not stated) | – | 8.96 | – | – | 9.02 | 8.94 | – | 8.66
